# Test results taken from patent US5231182A, “Method of making certain aryl containing amides” (American Cyanamid Company, priority 1991, dated 1993).
# Values joined by “and” are separate entries in the source; they are usually repeats but may differ in a detail not shown here. Equal entries are not always repeated. Structures can show the parent of a compound that is named as a salt.
# Experiments:
# [1] = test system: Endotoxin induced shock and mortality; assay: Endotoxin induced shock and mortality in mice: low dose, chronic mouse endotoxemia; assay type: in vivo, Male Balb/c mice
# Description: Endotoxin administration produces a shock-like state characterized by vascular permeability changes, hypotension, neutropenia, thrombocytopenia,multiple organ damage and death. The major mediators released after endotoxin injection are TNF (tumor necrosis factor), PAF (platelet activating factor) and […] (interleukin I). PAF administration mimics the signs and symptoms of endotoxin induced shock and death and endotoxin also induces the release of PAF. Therefore, the effects of endotoxin should be blocked with a PAF antagonist.
# Male Balb/c mice (approximately 20 g) are obtained from Charles River Laboratories and used after a one-two week acclimation period. Animals are given (ip) test compound dissolved in saline or water (sonicated and heated) at different time intervals prior to and after the ip injection of endotoxin (usually 2 hours before LPS endotoxin, and 3-4 hours after). Sigma E. Coli endotoxin, 0111:B4, phenol extraction, catalog #L2630 is used for these studies.
# For the chronic endotoxin shock model, a lower dose of endotoxin is administered (generally 15 to 20 mg/kg i.p). This dose gives an LD80 in two to four days following LPS administration. Test compounds are given 2 hours before LPS and 3-4 hours after on the first day, followed by 3 or 4 consecutive days of BID dosing. The number of survivors in each group is recorded each day for a period of 5 to 7 days.
# Effect of Compounds Given i.p. in Low Dose, Chronic Mouse Endoxemia
# [2] = target: T1, PAF receptor (Oryctolagus cuniculus, UniProt G1TEI7); assay: Platelet Activating Factor antagonism in vitro: inhibition of PAF induced platelet aggregation in rabbit platelet rich plasma; assay type: cell-based, rabbit (New Zealand White); settings: PAF chall conc 5.0000E-08 M
# T1 construct: centrifuged at 800 rpm for 10-15 minutes at room temperature to recover the platelet rich plasma (PRP); endogenous in cells; host or cells: platelets in citrated platelet rich plasma from male New Zealand White rabbits (Oryctolagus cuniculus)
# T1 sequence (G1TEI7 1-342): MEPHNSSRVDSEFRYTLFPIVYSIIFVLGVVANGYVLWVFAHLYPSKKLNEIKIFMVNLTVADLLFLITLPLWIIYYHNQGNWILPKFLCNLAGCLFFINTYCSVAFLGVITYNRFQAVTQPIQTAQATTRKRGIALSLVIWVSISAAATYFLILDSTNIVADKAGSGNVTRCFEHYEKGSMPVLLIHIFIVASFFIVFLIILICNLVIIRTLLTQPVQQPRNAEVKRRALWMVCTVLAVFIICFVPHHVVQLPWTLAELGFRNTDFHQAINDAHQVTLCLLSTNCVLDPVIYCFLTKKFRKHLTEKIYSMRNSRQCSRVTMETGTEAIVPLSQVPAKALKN
# Procedure: Test compounds are evaluated as PAF receptor antagonists in vitro by measuring inhibition of PAF (platelet activating factor) induced platelet aggregation. Platelet aggregation is measured by a modification of the method described in […], et. al., J. Med. Chem., 27 1174, 1984. […] All syringes and pipets are plastic. The blood is gently mixed and immediately centrifuged at 800 rpm for 10-15 minutes at room temperature to recover the platelet rich plasma (PRP). Platelet poor plasma (PPP) is prepared by centrifuging PRP at 2800 rpm for 10 minutes at room temperature. Dilutions (1:3000) of PRP in Isoton® diluent are made and platelet counts are determined on a Coulter Thrombocounter which is standardized with platelet reference standards (Interscience Platelet Control, Portland, Oreg.). PRP platelet counts are adjusted to approximately 400,000-500,000 platelets/μl by the addition of PPP. L-PAF (Platelet Activating Factor) is obtained from Calbiochem. […] All solutions are made up in plastic tubes, stored on ice and protected from heat and light. Solutions are prepared fresh or frozen at -20° C. and used within 48 hours. Incubation mixtures consisted of 400 μl PRP, 50 μl of saline diluent or test compound and 50 μl of PAF agonist. More specifically, 400 μl of PRP is stabilized in a cuvette for 1-2 minutes at 37° C. in the aggregometer to achieve a stable baseline, then 50 μl of saline or test compound is added and incubated for 5 minutes before addition of the challenge concentration of PAF. A submaximal concentration is determined from the dose response curve for PAF for that experiment. In general, the challenge concentration is 5E-8 or IE-7M. Aggregation is monitored for 5 minutes. Samples containing test compound or diluent are run simultaneously for comparison. Test compounds are initially evaluated at a screening concentration of 1E-5M. […] The recording equipment consists of a dual channel Chronolog aggregometer connected to a dual channel 10MV full scale deflection Omniscribe chart recorder (Houston Instruments). The chart recorder is calibrated daily with the use of a suspension of Bio-Rad latex beads (S-X 12 400 mesh) which has a density slightly greater than rabbit PRP. […] These limits defined a full scale deflection. The aggregation traces are analyzed by a digitizing method (C. Kohler and B. Zoltan, J. Pharm. Methods, 12, 113, 1984) with x, y coordinate data stored in a computer file. A suitable program computes parameters of interest such as the magnitude of aggregation. | ^a dose of compound that gives the indicated % inhibition. | ^b the % inhibition of PAF induced platelet aggregation. | ^c the molar concentration of compound that will inhibit 50% of the | platelet aggretation induced by PAF given at the indicated PAF challenge | concentration.
# [3] = test system: PAF induced lethality; assay: PAF induced lethality in mice; assay type: in vivo; settings: PAF 150 μg/kg IV
# Procedure: PAF given I.V. to mice causes an immediate hypotensive shock leading to death in 1 hour or less. Compounds are given intraperitoneally or P.O. at various times before the PAF challenge. Animals alive after 2 hours are counted and the activity of test compounds expressed as % survival corrected for any control (saline treated) animals which survived the PAF challenge.
# Effect of Compound Given I.V. or P.O. in Protecting
# Mice from a Lethal Challenge of PAF^a
# ^a lethal challenge of PAF is 150 μg/kg IV.
Structure (SMILES),"% Survival ([1]; day 0, dose 10 mg/kg i.p.)","No Surv./tot. ([1]; day 0, dose 10 mg/kg i.p.)","% Survival ([1]; day 0, dose 20 mg/kg i.p.)","No Surv./tot. ([1]; day 0, dose 20 mg/kg i.p.)","% Survival ([1]; day 1, dose 10 mg/kg i.p.)","No Surv./tot. ([1]; day 1, dose 10 mg/kg i.p.)","% Survival ([1]; day 1, dose 20 mg/kg i.p.)","No Surv./tot. ([1]; day 1, dose 20 mg/kg i.p.)","% Survival ([1]; day 2, dose 10 mg/kg i.p.)","No Surv./tot. ([1]; day 2, dose 10 mg/kg i.p.)","% Survival ([1]; day 2, dose 20 mg/kg i.p.)","No Surv./tot. ([1]; day 2, dose 20 mg/kg i.p.)","% Survival ([1]; day 3, dose 10 mg/kg i.p.)","No Surv./tot. ([1]; day 3, dose 10 mg/kg i.p.)","% Survival ([1]; day 3, dose 20 mg/kg i.p.)","% Survival ([1]; day 4, dose 10 mg/kg i.p.)","No Surv./tot. ([1]; day 4, dose 10 mg/kg i.p.)","% Survival ([1]; day 5, dose 10 mg/kg i.p.)","No Surv./tot. ([1]; day 5, dose 10 mg/kg i.p.)","No Surv./tot. ([1]; day 6, dose 10 mg/kg i.p.)",also measured
CCCCCCCCCCCCCCOc1ccc(CC(=O)Nc2ccc(C[n+]3csc(C)c3)cc2)cc1.[Br-] [5-Methyl-3-[[4-[[[4-(tetradecyloxy)phenyl]acetyl]amino]phenyl]methyl]thiazolium bromide],100%,30/30,100%,30/30,100%,30/30,90%,27/30,80%,24/30,60%,18/30,80%,24/30,60%,80%,24/30,80%,24/30,24/30,"No Surv./tot. ([1]; day 3, dose 20 mg/kg i.p.): 18/30; % Survival ([1]; day 4, dose 20 mg/kg i.p.): 60%; No Surv./tot. ([1]; day 4, dose 20 mg/kg i.p.): 18/30; % Survival ([1]; day 5, dose 20 mg/kg i.p.): 60%; No Surv./tot. ([1]; day 5, dose 20 mg/kg i.p.): 18/30; % Survival ([1]; day 6, dose 10 mg/kg i.p.): 80%; % Survival ([1]; day 6, dose 20 mg/kg i.p.): 56%; No Surv./tot. ([1]; day 6, dose 20 mg/kg i.p.): 17/30; % INH (inhibition of PAF induced platelet aggregation) ([2]; dose .00001 M): 100.0%; % Survival ([3]; P.O. 5 mg/kg): 32%; % Survival ([3]; P.O. 20 mg/kg): 32%"
CCCCCCCCCCCCCCOc1ccc(CC(=O)Nc2cccc(C[n+]3ccsc3)c2)cc1.[Br-] [3-[[3-[[[-4-(tetradecyloxy)phenyl]acetyl]amino]phenyl]methyl]thiazolium bromide],100%,30/30,100%,30/30,83%,25/30,90%,27/30,66%,20/30,43%,13/30,63%,19/30,40%,63%,19/30,63%,19/30,19/30,"No Surv./tot. ([1]; day 3, dose 20 mg/kg i.p.): 12/30; % Survival ([1]; day 4, dose 20 mg/kg i.p.): 40%; No Surv./tot. ([1]; day 4, dose 20 mg/kg i.p.): 12/30; % Survival ([1]; day 5, dose 20 mg/kg i.p.): 40%; No Surv./tot. ([1]; day 5, dose 20 mg/kg i.p.): 12/30; No Surv./tot. ([1]; day 6, dose 20 mg/kg i.p.): 12/30; % Survival ([1]; day 7, dose 10 mg/kg i.p.): 63%; No Surv./tot. ([1]; day 7, dose 10 mg/kg i.p.): 19/30; % Survival ([1]; day 7, dose 20 mg/kg i.p.): 40%; No Surv./tot. ([1]; day 7, dose 20 mg/kg i.p.): 12/30; % INH (inhibition of PAF induced platelet aggregation) ([2]; dose .000001 M): 93.0% and 62.0%; % Survival ([3]; P.O. 40 mg/kg): 40%"
CCCCCCCCCCCCCCOc1ccc(CN(C(=O)NC)c2cccc(C[n+]3csc(C)c3)c2)cc1.[Br-] [5-Methyl-3-[[3-[[(methylamino)carbonyl]-[[4-(tetradecyloxy)phenyl]methyl]amino]phenyl]methyl]thiazolium bromide],100%,30/30,100%,30/30,80%,24/30,90%,27/30,46%,14/30,23%,7/30,46%,14/30,20%,46%,14/30,46%,14/30,14/30,"No Surv./tot. ([1]; day 3, dose 20 mg/kg i.p.): 6/30; % Survival ([1]; day 4, dose 20 mg/kg i.p.): 20%; No Surv./tot. ([1]; day 4, dose 20 mg/kg i.p.): 6/30; % Survival ([1]; day 5, dose 20 mg/kg i.p.): 20%; No Surv./tot. ([1]; day 5, dose 20 mg/kg i.p.): 6/30; No Surv./tot. ([1]; day 6, dose 20 mg/kg i.p.): 6/30; % Survival ([1]; day 7, dose 10 mg/kg i.p.): 46%; No Surv./tot. ([1]; day 7, dose 10 mg/kg i.p.): 14/30; % Survival ([1]; day 7, dose 20 mg/kg i.p.): 20%; No Surv./tot. ([1]; day 7, dose 20 mg/kg i.p.): 6/30"
CCCCCCCCCCCCCCOc1ccc(CC(=O)Nc2cccc(-n3ccnc3C)c2)cc1 [N-[3-(2-Methyl-1H-imidazol-1-yl)phenyl-4-(tetradecyloxy)benzeneacetamidemonohydrochloride],,,,,,,,,,,,,,,,,,,,,"% INH (inhibition of PAF induced platelet aggregation) ([2]; dose .00001 M, monohydrochloride): 39.0%"
CCCCCCCCCCCCCCOc1ccc(CN(C(C)=O)c2cccc(C[n+]3csc(C)c3)c2)cc1.[Br-] [3-[[3-[Acetyl[[4-(tetradecyloxy)phenyl]methyl]amino]phenyl]methyl]-5-methylthiazolium bromide],100%,30/30,,,73%,22/30,,,33%,10/30,,,26%,8/30,,23%,7/30,23%,7/30,7/30,"% Survival ([1]; day 6, dose 10 mg/kg i.p.): 23%; % INH (inhibition of PAF induced platelet aggregation) ([2]; dose .00001 M): 100.0% and 90.0%; % Survival ([3]; I.V. 1 mg/kg): 83%; % Survival ([3]; I.V. .25 mg/kg): 100%; % Survival ([3]; I.V. .5 mg/kg): 83%; % Survival ([3]; P.O. 5 mg/kg): 52%; % Survival ([3]; P.O. 10 mg/kg): 75%; % Survival ([3]; P.O. 20 mg/kg): 75%"
